Results on four compounds are retold here after patent US5506217A, “Phosphonates as anti-cancer agents” (The University of British Columbia, priority 1994, dated 1996).

In one assay the test system is B-16/F10 melanoma cells. Briefly: B-16/F10 melanoma metastasis in C57BL/6 mice. Conditions: 10 mg/kg IV (day 0, 4 and 8). The class given is in vivo. How it is done: Highly metastatic B-16/F10 melanoma cells were injected into the tail veins of female C57BL/6 mice (1×10^5 cells per mouse). Treatment of one group of mice with the phosphonate compound of the above formula (compound VIII), dissolved into 0.5mL ethanol, 0.5 mL cremaphor and 9.0 mL phosphate buffered saline, began three days after the tumor cells were injected. lntramuscular injections of 0.2 mL of the phosphonate emulsion (10 mg/kg/day) were given for 5 days per week for 2 weeks. A second group of mice were treated with Adriamycin (10 mg/kg given intravenously on days 0, 4 and 8) as a known anti-cancer drug control group, while a third group of mice received the vehicle emulsion alone. The mice were examined every day for general health, behaviour and body weight. Counts of metastatic melanomic tumor colonies found in the lungs, general observations of metastasis to distant organs and examination of organs (liver, kidneys, lungs and spleen) were taken at autopsy 4 weeks after treatment.

Assay [1] concerns WEHI-3B tumor cells. Briefly: 3H-thymidine incorporation assay. Format: cell-based. Conditions: Mus musculus, WEHI3B; for viability at 6.25 µM / viability at 12.5 µM / viability at 25 µM / viability at 50 µM: percent [3H]thymidine uptake, WEHI-3B, read-out: Cell Viability (% of Control); for viability at 12.5 µM: 12.50 μM. How it is done: (§1) Experiments were performed using a number of different rumor cell lines. Tumor cells were cultured in RPMI-1640 medium supplemented with 10% fetal bovine serum, penicillin (50 units/mL), streptomycin (50 μg/mL) and mercaptoethanol (5 μg/mL) in an atmosphere of 5% CO2. The cells were passaged weekly by serial 1/10 to 1/10,000 dilutions. The cell viability and growth were constantly monitored by staining with trypan blue exclusion dye or the incorporation of tritiated thymidine.
(§2) Inhibition of ^3 H-thymidine incorporation into the DNA of cells by a test compound is an indirect measurement of cell kill or growth inhibition, and reflects the anti-cancer activity of the compound.
Tumor cells (2×104 ^4 cells/well) were placed in 200 μL of medium in 96-well plastic microtiter plates; a further 5 μL of medium either with or without phosphonate was added. […] The cells were then harvested using a Brandel cell harvester (model M-12) and collected on Whatman glass microfilters. The radioactivity associated with the filters was quantified in a liquid scintillation counter, and the amount of ^3 H-thymidine incorporated into tumor cells treated with the phosphonate compound was calculated as a percentage of the amount of ^3 H-thymidine incorporated into untreated tumor cells.
The biological activities of 4-hexadecylthio-3(S ) -3-methoxybutane-l-phosponocholine and its enantiomer 4-hexadecylthio-3(R)-3-methoxybutane-1-phosphonocholine were studied on several cancer cell lines. […] The cell viability, was determined as percent[^3 H]thymidine uptake into the cell DNA. The following results are mean of five samples ± S.D.
For orientation: Dividing cells build labelled thymidine or BrdU into new DNA.

Assay [2] deals with WEHI-3B tumor cells. The assay can be described thus: colonogenic cell survival assay. Format: cell-based. Conditions: Mus musculus, WEHI3B, 120 h, methyl cellulose medium, five days, read-out: WEHI-3B Colonies Formed (Percentage of Control). As to the method:
Inhibition of colony formation in soft agar medium (colonogenic cell survival assay) is a more rigorous and direct measurement of cell kill or growth inhibition, and reflects the anti-cancer activity of the test compound. Briefly, tumor cells were cultured in petri dishes in methylcellulose, with or without a phosphonate test compound, and the number of colonies formed during a 5-day incubation period were counted.
Table 17 tabulates data obtained with two differrent phosphonate analogs using a colonogenic assay. Colonogenic assay is one of the most trusted tests for determination of effectiveness of an anti-cancer agent. The test is based on the formation of tumor colonies in vitro in a methyl cellulose or soft agar medium. The following results were obtained with the formation of colonies in methyl cellulose medium after five days in the presence or absence of four phosphonate analogs, two with a thioalkyl chain and two with an alkyloxy chain.

Another assay relates to HL-60 tumor cells. The assay can be described thus: 3H-thymidine incorporation assay. The class given is cell-based. Conditions: Homo sapiens, HL-60 cells, read-out: Thymidine uptake (% of control). How it is done:
as §1, §2
Tumor cells (2×104 ^4 cells/well) were placed in 200 μL of medium in 96-well plastic microtiter plates; a further 5 μL of medium either with or without phosphonate was added. After incubation for 24, 48 or 72 hours at 37° C. in a humidified atmosphere containing 5% CO2, the wells were pulsed with 0.1 μCi of ^3 H-thymidine for an additional 24 hours. The cells were then harvested using a Brandel cell harvester (model M-12) and collected on Whatman glass microfilters. The radioactivity associated with the filters was quantified in a liquid scintillation counter, and the amount of ^3 H-thymidine incorporated into tumor cells treated with the phosphonate compound was calculated as a percentage of the amount of ^3 H-thymidine incorporated into untreated tumor cells.

Setting [3] is: 24 hours, read-out: Thymidine uptake (% of control).
Where [4] appears, read: 48 hours, WEHI-3B cells, read-out: Thymidine uptake (% of control).
Where [5] appears, read: Table 3: 48 hours in title (text: 72 hours), WEHI-3B cells, read-out: Thymidine uptake (% of control).
Setting [6] is: Table 3: 48 hours in title (text: 72 hours).

Where two headings read alike, the source gives them in different places.

Take `COc1cccc2c1C(=O)c1c(O)c3c(c(O)c1C2=O)C[C@@](O)(C(=O)CO)C[C@@H]3O[C@H]1C[C@H](N)[C@H](O)[C@H](C)O1` [Adriamycin, reference compound]: the “melanomic tumor colonies in the lungs (in words)” value in the assay on B-16/F10 melanoma cells was “none of the Adriamycin-treated mice developed melanomic tumor colonies in their lungs”. Also, the “Melanomic tumor colonies found in the lungs at autopsy” value in the assay with B-16/F10 melanoma cells (Mouse 1), with B-16/F10 melanoma cells (Mouse 2), in the assay on B-16/F10 melanoma cells (Mouse 3), in the assay on B-16/F10 melanoma cells (Mouse 4), in the assay with B-16/F10 melanoma cells (Mouse 5) and in the assay on B-16/F10 melanoma cells (Mouse 6) was 0 in each case.
Regarding `CCCCCCCCCCCCCCCCSC[C@H](CCP(=O)([O-])OCC[N+](C)(C)C)OC` [Compound 1, 4hexadecylthio-3-O-methyl-3(S)-butane-phosphonocholine], in the assay on WEHI-3B tumor cells [1], the viability at 6.25 µM stood at 55 ± 0.5%, the viability at 12.5 µM came out at 31 ± 3.4%, the viability at 25 µM turned out to be 21 ± 0.2% and the viability at 50 µM turned out to be 2 ± 1.4%. Besides, in the assay on WEHI-3B tumor cells [2], the activity at 0.6 µM came to 88%, the activity at 1.25 µM came to 95%, the activity at 2.5 µM is 55% and the activity at 5 µM came out at 52%. Besides, in the assay with WEHI-3B tumor cells [2], the activity at 10 µM was 22% and the activity at 20 µM turned out to be 9%.
For the compound `CCCCCCCCCCCCCCCCSC[C@@H](CCP(=O)([O-])OCC[N+](C)(C)C)OC` [Compound 2, 4hexadecylthio-3-O-methyl-3(R)-butane-phosphonocholine], in the assay on WEHI-3B tumor cells [1], the viability at 6.25 µM is 61 ± 0.4%, the viability at 12.5 µM came to 24 ± 2.7%, the viability at 25 µM was 22 ± 4.6% and the viability at 50 µM is 12 ± 1.2%. Further, in the assay with WEHI-3B tumor cells [2], the activity at 0.6 µM was determined as 54%, the activity at 1.25 µM is 44%, the activity at 2.5 µM came to 36% and the activity at 5 µM was 21%. Further, in the assay with WEHI-3B tumor cells [2], the activity at 10 µM is 5% and the activity at 20 µM was 0%.
As to `CCCCCCCCCCCCCCCCCCOCC(CP(=O)([O-])OCC[N+](C)(C)C)OC` (stereo not shown) [compound V], in the assay with WEHI-3B tumor cells [1] (setting [3]), the activity at 0.62 µM was determined as 137 ± 6%, the activity at 1.25 µM was 93 ± 7%, the activity at 2.5 µM worked out at 91 ± 4% and the activity at 5 µM was found to be 88 ± 11%. Besides, in the assay on WEHI-3B tumor cells [1] (setting [3]), the activity at 10 µM is 76 ± 6% and the activity at 20 µM turned out to be 48 ± 4%. Besides, in the assay on WEHI-3B tumor cells [1] (setting [4]), the activity at 0.62 µM turned out to be 93 ± 6%, the activity at 1.25 µM stood at 90 ± 5%, the activity at 2.5 µM was determined as 86 ± 8% and the activity at 5 µM came to 61 ± 6%. In the assay with WEHI-3B tumor cells [1] (setting [4]), the activity at 10 µM was 23 ± 2% and the activity at 20 µM was 18 ± 8%. Further, in the assay with WEHI-3B tumor cells [1] (setting [5]), the activity at 0.62 µM was 85 ± 3%, the activity at 1.25 µM worked out at 86 ± 4%, the activity at 2.5 µM came out at 82 ± 6% and the activity at 5 µM was 60 ± 4%. In the assay with WEHI-3B tumor cells [1] (setting [5]), the activity at 10 µM stood at 26 ± 3% and the activity at 20 µM turned out to be 10 ± 3%. Moreover, the activity at 40 µM with WEHI-3B tumor cells [1] (40 μM, 24 hours, read-out: Thymidine uptake (% of control)) was found to be 43 ± 15%. For the same compound, in the assay with HL-60 tumor cells (48 hours), the activity at 0.62 µM is 84 ± 5%, the activity at 1.25 µM turned out to be 76 ± 4%, the activity at 2.5 µM is 63 ± 4% and the activity at 5 µM came out at 24 ± 3%. In the assay on HL-60 tumor cells (48 hours), the activity at 10 µM was determined as 3 ± 2% and the activity at 20 µM worked out at 1%. In addition, in the assay on HL-60 tumor cells (setting [6]), the activity at 0.62 µM was determined as 93 ± 4%, the activity at 1.25 µM was 81 ± 4%, the activity at 2.5 µM worked out at 66 ± 3% and the activity at 5 µM was determined as 16 ± 4%. Further, in the assay on HL-60 tumor cells (setting [6]), the activity at 10 µM was 5 ± 1% and the activity at 20 µM was determined as 1 ± 0.9%.

By viability is commonly meant a per cent measure of how many cells are alive, often set against a control.
